Measured values: patent US12421249B2, “Inhibitors of APOL1 and methods of using same” (Vertex Pharmaceuticals Incorporated, priority 2020, dated 2025)
Read-outs that look alike come from different tables or passages of the source.

Key:
APOL1 = target: T1, APOL1 (Homo sapiens, UniProt O14791); assay: Multi-Tox Assay (MultiTox-Fluor Multiplex Cytotoxicity Assay in tet-inducible APOL1 T-REx-HEK293 cells; Table 46 does not say which APOL1 variant G0/G1/G2); assay type: cell-based; settings: APOL1 variant not given; for IC50: IP50 = IC50 for cell proliferation
T1 sequence (O14791 1-398 S342G/I384M): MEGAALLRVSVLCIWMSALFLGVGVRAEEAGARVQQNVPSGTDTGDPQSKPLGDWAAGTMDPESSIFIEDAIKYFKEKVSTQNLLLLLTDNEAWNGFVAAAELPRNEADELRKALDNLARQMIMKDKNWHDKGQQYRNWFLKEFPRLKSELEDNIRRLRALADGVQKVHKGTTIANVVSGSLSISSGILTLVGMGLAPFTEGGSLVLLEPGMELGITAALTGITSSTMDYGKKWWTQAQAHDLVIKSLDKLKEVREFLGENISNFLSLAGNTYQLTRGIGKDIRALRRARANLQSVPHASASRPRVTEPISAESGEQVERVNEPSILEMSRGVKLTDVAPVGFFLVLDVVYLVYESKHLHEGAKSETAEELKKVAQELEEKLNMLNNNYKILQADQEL

APOL1 G1 = target: T2, APOL1 G1 (Homo sapiens, UniProt O14791, I384M/S342G); assay: Trypanosoma brucei brucei Lysis Assay Using APOL1 Recombinant Protein (AlamarBlue viability readout); assay type: cell-based; settings: for Emax: read-out: Trypanosome Assay Max Activity (%)
T2 sequence (O14791 28-398 S342G/I384M): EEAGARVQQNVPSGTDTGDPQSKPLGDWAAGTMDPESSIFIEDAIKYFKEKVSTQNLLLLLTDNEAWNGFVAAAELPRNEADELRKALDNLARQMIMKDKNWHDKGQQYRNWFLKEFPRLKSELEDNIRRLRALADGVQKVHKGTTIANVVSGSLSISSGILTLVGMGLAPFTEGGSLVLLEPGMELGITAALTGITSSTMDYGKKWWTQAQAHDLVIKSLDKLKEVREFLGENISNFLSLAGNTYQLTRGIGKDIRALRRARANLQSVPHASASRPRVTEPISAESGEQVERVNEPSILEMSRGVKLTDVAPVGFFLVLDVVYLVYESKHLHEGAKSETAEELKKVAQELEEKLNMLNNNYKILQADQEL
In short: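 Percent viability comes from AlamarBlue (resazurin→resorufin) fluorescence interpolated on a standard curve of known parasite numbers, with no-APOL1 wells as 100%. Parasites (Lister 427 bloodstream form, 120,000/well, serum-free assay medium) meet 0.05 μg/mL APOL1 (~EC90). Compounds span a 10-point series, 0.1% DMSO final.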

[1] = Trypanosome Assay, IP50 = IC50 for cell proliferation, read-out: Trypanosome Assay IP50

**Q.** With CC1CC2(CC(c3cnn(CCS(C)(=O)=O)c3)N1)OCCc1sc(C(F)(F)F)cc12 (stereo not drawn) [Compound 9] as the molecule, how does the “Multi-Tox Assay Max Activity (%)” value (APOL1) read?
**A.** 100.0%

**Q.** And the IC50 (APOL1)?
**A.** < 50 nM

**Q.** What about the IC50 (APOL1 G1; [1]) of the same molecule?
**A.** 50 to 500 nM

**Q.** And the Emax (APOL1 G1; Trypanosome Assay)?
**A.** 108%

**Q.** Which IC50 (APOL1) does the source give for C[C@H]1C[C@@]2(C[C@@H](c3cn(C)nn3)N1)OCCc1c2sc(C(F)(F)F)c1CO [Compound 17, [(2′S,6′S, 7S)-2′-methyl-6′-(1-methyltriazol-4-yl)-2-(trifluoromethyl)spiro[4,5-dihydrothieno[2,3-c]pyran-7,4′-piperidine]-3-yl]methanol] here?
**A.** < 50 nM

**Q.** And the IC50 (APOL1 G1; [1])?
**A.** 50 to 500 nM

**Q.** What about the Emax (APOL1 G1; Trypanosome Assay) of the same molecule?
**A.** 102%

**Q.** What does the source list for C[C@H]1C[C@@]2(C[C@@H](c3cnn(CC(=O)N(C)C)c3)N1)OCCc1cc(Cl)sc12 [Compound 18, 2-[4-[(2S,6S)-2-chloro-6′-methyl-spiro[4,5-dihydrothieno[2,3-c]pyran-7,4′-piperidine]-2′-yl]pyrazol-1-yl]-N,N-dimethyl-acetamide]?
**A.** IC50 (APOL1): < 50 nM; IC50 (APOL1 G1; [1]): 50 to 500 nM; Emax (APOL1 G1; Trypanosome Assay): 103%

**Q.** Which results are given for C[C@H]1C[C@@]2(C[C@@H](c3cnn(C)c3)N1)OCCc1cc(Cl)sc12 [Compound 19, (2S)-2-chloro-2′-methyl-6′-(1-methylpyrazol-4-yl)spiro[4,5-dihydrothieno[2,3-c]pyran-7,4′-piperidine]]?
**A.** IC50 (APOL1): < 50 nM; IC50 (APOL1 G1; [1]): < 50 nM; Emax (APOL1 G1; Trypanosome Assay): 107%

**Q.** What does the source list for CC1CC2(CC(c3ccc4c(c3)oc(=O)n4C)N1)OCCc1cc(Cl)sc12 (stereo not drawn) [Compound 23]?
**A.** IC90 (APOL1): < 50 nM; Multi-Tox Assay Max Activity (%) (APOL1): 99.7%; IC50 (APOL1): < 50 nM; IC50 (APOL1 G1; [1]): < 50 nM; Emax (APOL1 G1; Trypanosome Assay): 116%

**Q.** Which results are given for CC1CC2(CC(c3cccc(C#N)c3)N1)OCCc1cc(Cl)sc12 (stereo not drawn) [Compound 24]?
**A.** Multi-Tox Assay Max Activity (%) (APOL1): 100.0%; IC50 (APOL1): < 50 nM; IC50 (APOL1 G1; [1]): < 50 nM; Emax (APOL1 G1; Trypanosome Assay): 107%

**Q.** What does the source list for CNC(=O)c1cccc(C2CC3(CC(C)N2)OCCc2cc(Cl)sc23)c1 (stereo not drawn) [Compound 27]?
**A.** IC50 (APOL1): < 50 nM; IC50 (APOL1 G1; [1]): < 50 nM; Emax (APOL1 G1; Trypanosome Assay): 112%

**Q.** Which “Multi-Tox Assay Max Activity (%)” value (APOL1) does the source give for CC1CC2(CC(c3ccncc3)N1)OCCc1cc(Cl)sc12 (stereo not drawn) [Compound 30] here?
**A.** 99.0%

**Q.** And the IC50 (APOL1)?
**A.** < 50 nM

**Q.** What about the IC50 (APOL1 G1) of the same molecule?
**A.** < 50 nM

**Q.** What about the Emax (APOL1 G1) of the same molecule?
**A.** 124%

**Q.** For CC1CC2(CC(c3cn[nH]c3)N1)OCCc1cc(Cl)sc12 (stereo not drawn) [Compound 31], which IC90 (APOL1) is on record?
**A.** < 50 nM

**Q.** What about the “Multi-Tox Assay Max Activity (%)” value (APOL1) of the same molecule?
**A.** 100.0%

**Q.** What about the IC50 (APOL1) of the same molecule?
**A.** < 50 nM

**Q.** What about the IC50 (APOL1 G1; [1]) of the same molecule?
**A.** < 50 nM

**Q.** And the Emax (APOL1 G1; Trypanosome Assay)?
**A.** 123%

**Q.** With CC1CC2(CC(c3cc(F)cc(C#N)c3)N1)OCCc1cc(Cl)sc12 (stereo not drawn) [Compound 33] as the molecule, how does the IC50 (APOL1) read?
**A.** < 50 nM

**Q.** And the IC50 (APOL1 G1; [1])?
**A.** < 50 nM

**Q.** What about the Emax (APOL1 G1; Trypanosome Assay) of the same molecule?
**A.** 111%

**Q.** What does the source list for COc1ccc(C2CC3(CC(C)N2)OCCc2cc(Cl)sc23)nc1 (stereo not drawn) [Compound 34]?
**A.** Multi-Tox Assay Max Activity (%) (APOL1): 99.0%; IC50 (APOL1): < 50 nM; IC50 (APOL1 G1; [1]): < 50 nM; Emax (APOL1 G1; Trypanosome Assay): 115%

**Q.** With CC1CC2(CC(c3ccc4[nH]ncc4c3)N1)OCCc1cc(Cl)sc12 (stereo not drawn) [Compound 35] as the molecule, how does the IC50 (APOL1) read?
**A.** < 50 nM

**Q.** What about the IC50 (APOL1 G1; [1]) of the same molecule?
**A.** < 50 nM

**Q.** And the Emax (APOL1 G1; Trypanosome Assay)?
**A.** 111%

**Q.** CC(=O)Nc1ccc(C2CC3(CC(C)N2)OCCc2cc(Cl)sc23)cn1 (stereo not drawn) [Compound 37] was tested. Which IC50 (APOL1) did it give?
**A.** < 50 nM

**Q.** What about the IC50 (APOL1 G1; [1]) of the same molecule?
**A.** < 50 nM

**Q.** And the Emax (APOL1 G1; Trypanosome Assay)?
**A.** 114%

**Q.** How did the IC50 (APOL1) turn out when CC1CC2(CC(c3cnn(C)n3)N1)OCCc1cc(Cl)sc12 (stereo not drawn) [Compound 38] was run?
**A.** < 50 nM

**Q.** What about the IC50 (APOL1 G1; [1]) of the same molecule?
**A.** < 50 nM

**Q.** What about the Emax (APOL1 G1; Trypanosome Assay) of the same molecule?
**A.** 112%

**Q.** Which IC50 (APOL1) does the source give for CC1CC2(CC(c3ccc4c(c3)OCC(=O)N4)N1)OCCc1cc(Cl)sc12 (stereo not drawn) [Compound 39] here?
**A.** < 50 nM

**Q.** And the IC50 (APOL1 G1; [1])?
**A.** < 50 nM

**Q.** What about the Emax (APOL1 G1; Trypanosome Assay) of the same molecule?
**A.** 116%

**Q.** Which results are given for CC1CC2(CC(c3cnn(-c4cccnc4)c3)N1)OCCc1cc(Cl)sc12 (stereo not drawn) [Compound 40]?
**A.** Multi-Tox Assay Max Activity (%) (APOL1): 100.0%; IC50 (APOL1): < 50 nM; IC50 (APOL1 G1; [1]): < 50 nM; Emax (APOL1 G1; Trypanosome Assay): 118%

**Q.** CNC(=O)c1ccc(C2CC3(CC(C)N2)OCCc2cc(Cl)sc23)cc1 (stereo not drawn) [Compound 41] was tested. Which IC50 (APOL1) did it give?
**A.** < 50 nM

**Q.** What about the IC50 (APOL1 G1; [1]) of the same molecule?
**A.** < 50 nM

**Q.** What about the Emax (APOL1 G1; Trypanosome Assay) of the same molecule?
**A.** 112%

**Q.** With Cc1nn(C)c2ncc(C3CC4(CC(C)N3)OCCc3cc(Cl)sc34)cc12 (stereo not drawn) [Compound 42] as the molecule, how does the IC50 (APOL1) read?
**A.** < 50 nM

**Q.** What about the IC50 (APOL1 G1; [1]) of the same molecule?
**A.** < 50 nM

**Q.** And the Emax (APOL1 G1; Trypanosome Assay)?
**A.** 110%
